According to PubChem BioAssay (NCI):
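In this assay, cells in 96-well plates receive the compound at five concentrations for 48 hours. Endpoints are linearly interpolated between the surrounding concentrations. The concentration for 50% growth inhibition is given as GI50. The concentration for full growth arrest is given as TGI.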

Tests used:
Assay in all cases: DTP human tumour cell line panel, 48 h
KM20L2 colon = test system: KM20L2 colon
HOP-18 NSCLC = test system: HOP-18 NSCLC
SNB-78 CNS = test system: SNB-78 CNS
LXFL 529 NSCLC = test system: LXFL 529 NSCLC
M19-MEL melanoma = test system: M19-MEL melanoma
XF 498 CNS = test system: XF 498 CNS
MDA-N = test system: MDA-N
BT-549 breast = test system: BT-549 breast
RXF-631 renal = test system: RXF-631 renal

| SMILES | TGI (KM20L2 colon) [µM] | TGI (HOP-18 NSCLC) [µM] | TGI (SNB-78 CNS) [µM] | TGI (LXFL 529 NSCLC) [µM] | TGI (M19-MEL melanoma) [µM] | TGI (XF 498 CNS) [µM] | TGI (MDA-N) [µM] | TGI (BT-549 breast) [µM] | GI50 (BT-549 breast) [µM] | TGI (RXF-631 renal) [µM] | GI50 (KM20L2 colon) [µM] |
| --- | --- | --- | --- | --- | --- | --- | --- | --- | --- | --- | --- |
| COc1ccc(/C=C2/C[N+](C)(C)C/C(=C/c3ccc(OC)cc3)C2=O)cc1 | > 100 | > 100 | > 100 | > 100 | 69.4 | > 100 | – | – | – | – | – |
| COC(=O)C(Nc1ccc(OC)cc1)c1ccccc1 (stereo unspecified) | – | – | – | – | – | – | > 100 | – | – | – | – |
| Cn1c(=O)c2[nH]c(CS(=O)(=O)Cc3nc4c([nH]3)c(=O)n(C)c(=O)n4C)nc2n(C)c1=O | – | – | – | – | – | – | > 100 | > 100 | – | – | – |
| CC1(C)N=C(N)N=C(N)N1c1cc(Cl)ccc1Cl | – | – | – | – | – | – | – | > 100 | > 100 | – | – |
| Cc1cc(C)nc(Nc2nc3ccc([N+](=O)[O-])cc3[nH]2)n1 | > 100 | – | > 100 | > 100 | – | > 100 | – | – | – | – | – |
| COc1ccc2ccc([Se]c3ccc4ccc(OC)cc4c3)cc2c1 | > 100 | > 100 | > 100 | > 100 | > 100 | > 100 | – | – | – | – | – |
| S=C(Nc1ccc(Cl)cc1)Nc1ccc(-c2nc3ccccc3[nH]2)cc1 | – | – | – | – | – | – | – | 53.1 | 19.1 | – | – |
| O=c1cc(-c2ccccc2)nc2n1CCN2Cc1ccccc1 | – | – | – | – | – | – | – | 67.2 | 26.6 | – | – |
| CC(=O)N1c2ccccc2Sc2cc(C(O)(C(F)(F)F)C(F)(F)F)ccc21 | – | – | – | – | – | – | > 10 | > 10 | – | – | – |
| O=C(NOCC1CC1)c1ccc(F)c(F)c1Nc1ccc(I)cc1Cl | – | – | – | – | – | – | – | > 100 | 3.39 | – | – |
| O=S1(=O)C[C@@H](O)[C@H](O)CS1 | > 100 | > 100 | > 100 | > 100 | > 100 | > 100 | – | – | – | – | – |
| O=C1CCC2(C=C(Br)C(=O)C(Br)=C2)O1 | – | – | – | – | – | – | – | 26.7 | 13.6 | – | – |
| COc1ccc2[nH]c(Cl)c(/C=C3/C(=O)N(C)c4ccccc43)c2c1 | – | – | – | – | – | – | – | > 100 | > 100 | – | – |
| CC(=O)OCC1OC(n2c(=O)n(-c3ccccc3)c(=O)c3ccccc32)C(OC(C)=O)C(OC(C)=O)C1OC(C)=O (stereo unspecified) | > 100 | > 100 | > 100 | > 100 | > 100 | – | – | – | – | > 100 | – |
| O=[N+]([O-])/C=C/c1c[nH]c2ccccc12 | – | – | – | – | – | – | – | 27.5 | 14.1 | – | – |
| O=C(C(Br)Br)C(Br)C(Br)c1ccccc1 (stereo unspecified) | – | – | – | – | – | – | – | 14.1 | 3.97 | – | – |
| CCOC(=O)CC1=CSC2=NCCN12 | > 100 | > 100 | > 100 | > 100 | > 100 | > 100 | – | – | – | > 100 | – |
| CCN(CC)CCCCCCCNc1c2ccc(Cl)cc2nc2ccc(OC)cc12 | – | – | – | – | – | – | – | 3.28 | 1.68 | – | – |

| SMILES | TGI (KM20L2 colon) [µM] | TGI (HOP-18 NSCLC) [µM] | TGI (SNB-78 CNS) [µM] | TGI (LXFL 529 NSCLC) [µM] | TGI (M19-MEL melanoma) [µM] | TGI (XF 498 CNS) [µM] | TGI (MDA-N) [µM] | TGI (BT-549 breast) [µM] | GI50 (BT-549 breast) [µM] | TGI (RXF-631 renal) [µM] | GI50 (KM20L2 colon) [µM] |
| --- | --- | --- | --- | --- | --- | --- | --- | --- | --- | --- | --- |
| O=C(O)C12C3CCCC1C2CC3 (stereo unspecified) | > 100 | > 100 | > 100 | > 100 | > 100 | > 100 | – | – | – | > 100 | – |
| CCOC(=O)C(=O)Nc1c(N(CC)CC)n2ccccc2nc1=O | > 100 | – | > 100 | > 100 | > 100 | > 100 | – | – | – | > 100 | – |
| CN(C)CCCNC(=O)c1cc(NC(=O)c2cc(NC(=O)c3cc(NC(=O)CCc4c[nH]c5ccccc45)cn3C)cn2C)cn1C | – | – | – | – | – | – | – | > 100 | > 100 | – | – |
| CN(c1ccccc1)C(c1ccccc1)C(O)c1ccccc1 (stereo unspecified) | 35.7 | 33.2 | 59.6 | 43.4 | 42.4 | – | – | – | – | 43.2 | – |
| C[C@]12CCC(=O)C(O)=C1CC[C@@H]1[C@@H]2CC[C@]2(C)C(=O)CC[C@@H]12 | > 100 | – | > 100 | > 100 | – | > 100 | > 100 | > 100 | – | > 100 | – |
| c1ccc(N=C2c3ccccc3C3=NCCCN32)cc1 | > 100 | – | > 100 | > 100 | > 100 | > 100 | – | – | – | > 100 | – |
| O=C1C(=O)N(c2ccc(Cl)c(Cl)c2)C(=O)C(=O)C1c1nc2ccccc2o1 | > 100 | – | > 100 | > 100 | > 100 | > 100 | – | – | – | > 100 | – |
| CC(=O)/C=C/c1ccc(C2CC(C)=Nc3c(ccc4c3C(=O)c3ccccc3C4=O)N2)cc1 (stereo unspecified) | > 100 | > 100 | > 100 | – | > 100 | > 100 | – | – | – | – | – |
| CCOC(=O)c1ccc(N2C(=O)/C(=C\OC)c3ccccc3C2=O)cc1 | > 100 | – | > 100 | 89.1 | > 100 | – | – | – | – | – | – |
| CC1(C)OCC(CO)(Nc2nc(N3CC3)nc(N3CC3)n2)CO1 | 51.8 | > 87.6 | > 100 | > 100 | 34.4 | 29.3 | 27.9 | 93.5 | – | – | – |
| COc1ccc(/C=C\c2cc(OC)c(OC)c(OC)c2)cc1OCC(=O)Nc1nc2ccc(C(F)(F)F)cc2s1 | – | – | – | – | – | – | – | > 100 | 5.23 | – | – |
| ON=C1CCC(c2ccccc2)CC1 (stereo unspecified) | > 100 | > 100 | > 100 | > 100 | > 100 | > 100 | – | – | – | – | – |
| CC(C(=O)Oc1ccc2ccccc2c1-c1c(O)ccc2ccccc12)c1ccccc1 (stereo unspecified) | – | – | 33.9 | 27.1 | 30.6 | 27.3 | – | – | – | 33.7 | – |
| CCOC(CN=c1nc(N(C)C)ss1)OCC | > 72.5 | > 100 | 51.5 | 20.5 | 19.1 | 47.1 | 24.8 | 55.5 | – | 32.5 | – |
| Cc1ccc2c(N)c(C(=O)N[C@H]3CCc4cc(N5CC6CCC(C5)N6)ccc4C3)sc2n1 | – | – | – | – | – | – | – | 3.06 | 0.927 | – | – |
| O=C([CH-]C(=O)c1ccccc1)c1ccccc1.O=C([CH-]C(=O)c1ccccc1)c1ccccc1.[Nd+3].[OH-].[OH3+] | 28.8 | – | – | – | – | – | – | – | – | – | 8.45 |
| CC(=O)Nc1ccc(C2[C@H]3C(=O)N(c4ccc(Cc5ccc(N6C(=O)[C@@H]7ON(c8ccccc8)C(c8ccc(NC(C)=O)cc8)[C@@H]7C6=O)cc5)cc4)C(=O)[C@H]3ON2c2ccccc2)cc1 (stereo partly specified) | > 100 | > 100 | > 100 | > 100 | > 100 | – | – | – | – | – | – |
